These results are taken from PubChem BioAssay AID1996.

The structures appear in SMILES notation. Values after ≈ are worked out from the molar mass of the structure shown. Where only a bound is given, the exact number is not on record here.

The conditions of the series: buffer; pH 7.4; 200.0 µM.
In general, kinetic solubility refers to solubility judged after dilution from a stock solution rather than from solid. `COc1ccc(-c2csc(COC(=O)C(C)(C)C)n2)cc1` had a solubility (kinetic) below 0.7 µg/mL. In turn, `O=c1c(Cc2ccc(Cl)cc2Cl)c(O)ccn1Cc1ccncc1` had a kinetic solubility above 54.2 µg/mL. In turn, `O=[N+]([O-])c1ncccc1OCc1ccccc1Br` returned a solubility (kinetic) of 5.7 µg/mL (≈ 18.4 µM). The figure for `COc1ccc(CC(=O)Oc2ccccc2[N+](=O)[O-])cc1` is 14.2 µg/mL (≈ 49.4 µM); for `CCOc1ccccc1NC(=O)c1ccccc1N(C)S(=O)(=O)c1ccc(C)cc1` it is 3.2 µg/mL (≈ 7.54 µM); for `Cc1sc2ncnc(SCC(=O)N3CCCC(C(N)=O)C3)c2c1C` (stereo not drawn) it is 53.6 µg/mL (≈ 147 µM). `CCc1ccc(OS(=O)(=O)c2cn(C)c(=O)n(C)c2=O)cc1` registered a solubility (kinetic) above 48.7 µg/mL. `Cl.c1cncc(CNCCc2c[nH]c3ccccc23)c1` yielded a solubility (kinetic) of 38.5 µg/mL. As to `O=C(NCC(c1ccco1)N1CCc2ccccc2C1)c1cccc(F)c1` (stereo not drawn), the kinetic solubility was 28.7 µg/mL (≈ 78.8 µM). The molecule `O=C(O)C1C2C=CC(C2)C1C(=O)Nc1ccccc1Br` (stereo not drawn) returned a kinetic solubility above 50.4 µg/mL. In the case of `N/C(Cc1nc2ccccc2s1)=N\O`, the solubility (kinetic) was 29.3 µg/mL (≈ 141 µM).

With `Cc1cccc(CC(=O)Nc2cccnc2)c1`, the solubility (kinetic) worked out at 31 µg/mL (≈ 137 µM). Take `COc1ccccc1N1CCN(C(=S)NC(=O)/C=C/c2ccccc2)CC1`: the kinetic solubility worked out at 1.3 µg/mL (≈ 3.41 µM). `CCCCN(C(=O)C1COc2ccccc2O1)c1c(N)n(CCC)c(=O)[nH]c1=O` (stereo not drawn): the solubility (kinetic) was above 60.4 µg/mL. The molecule `C=CCNc1nc(Cl)nc(NC2CCCCC2)n1` returned a kinetic solubility of 6.9 µg/mL (≈ 25.8 µM). Molecule `Oc1ccccc1N1CCN(C(=S)NCc2ccccc2)CC1` registered a solubility (kinetic) of 22.4 µg/mL (≈ 68.4 µM). Against the preceding molecule, the solubility kinetic is about 3.2-fold higher. The figure for `Cc1cc(C)c(S(=O)(=O)NCc2cccnc2)cc1C` is above 43.6 µg/mL; for `O=C(COC(=O)c1cnccn1)Nc1ccc(Cl)cn1` it is above 43.9 µg/mL. As for `C/C(=N\NC(=O)CCCNc1cccc(C)c1)c1ccncc1`, the solubility (kinetic) is above 46.6 µg/mL. Under `Cn1ccnc1SCC(=O)N1CCc2ccccc21` stands 38.9 µg/mL (≈ 142 µM).

For the molecule `COC(=O)c1ccc(Nc2ncnc3sccc23)cc1`, the solubility (kinetic) was found to be 1.8 µg/mL (≈ 6.31 µM). Under `Cc1cc(C)c(NC(=O)C(=O)NCc2ccco2)c(C)c1` stands 4.1 µg/mL (≈ 14.3 µM); under `O=C(OCC(=O)N1CCCCC1)c1cc(S(=O)(=O)N2CCOCC2)c(Cl)cc1Cl`, 67.7 µg/mL (≈ 145 µM). `Cc1nc2ccccc2c(=O)n1-c1ccc([N+](=O)[O-])cc1` gave a solubility (kinetic) above 42.2 µg/mL.

Regarding `CC12CCC(C(=O)NCc3ccc(F)cc3)(OC1=O)C2(C)C` (stereo not drawn), the kinetic solubility worked out at 44.2 µg/mL (≈ 145 µM). In turn, `Cc1cccc(NC(=O)[C@@H]2CCCN2C(=O)OC(C)(C)C)c1C` gave a solubility (kinetic) of 39.6 µg/mL (≈ 124 µM). The solubility kinetic values of the last two molecules are within 1.5-fold of each other. Molecule `Cc1ccc(NC(=O)COC(=O)CC2CC3CCC2C3)cc1S(=O)(=O)N1CCOCC1` (stereo not drawn) returned a solubility (kinetic) of 10.2 µg/mL (≈ 22.6 µM). The molecule `O=C(NC(=S)NC1CCSC1=O)c1cccc([N+](=O)[O-])c1` (stereo not drawn) came in with a solubility (kinetic) of 43.2 µg/mL (≈ 133 µM). Under `CC(C)NCC(O)COCCOc1ccc(Cl)cc1.Cl` (stereo not drawn) stands above 48.6 µg/mL. As to `c1ccc(CN2CCOCCOCCOCC2)cc1`, the kinetic solubility was above 39.8 µg/mL. `CC(C)CN1C2CCCC1CC(NC(=S)NCc1ccco1)C2` (stereo not drawn): the solubility (kinetic) was above 50.3 µg/mL.

Consider `CN(CC(=O)NCCc1ccc(F)cc1)Cc1ccccc1`, for which the solubility (kinetic) amounted to 38.7 µg/mL (≈ 129 µM). Take `COc1cc(/C=C/[N+](=O)[O-])ccc1OC(=O)c1cccnc1`: the solubility (kinetic) stood at 3.7 µg/mL (≈ 12.3 µM). Against the preceding molecule, the solubility kinetic is about 10-fold lower.

Turning to `COc1ccc(S(=O)(=O)N2CCc3ccccc32)cc1C(=O)Nc1ccc(NC(C)=O)cc1`, the solubility (kinetic) was 7.2 µg/mL (≈ 15.5 µM). This solubility kinetic lies about 1.9-fold higher than the previous one. For the molecule `CC1CCN(C(=O)COC(=O)/C=C/c2ccc([N+](=O)[O-])cc2)CC1`, the solubility (kinetic) came to 5.7 µg/mL (≈ 17.2 µM). Under `COc1ccc(CCNCc2cccn2C)cc1.Cl` stands 40.5 µg/mL; under `CN(C)C1(CN=Cc2cc(Cl)cc([N+](=O)[O-])c2O)CCCCC1`, above 51 µg/mL; under `Cc1ccc(-c2cc(NC(=O)c3ccccc3)on2)cc1`, below 0.3 µg/mL. Molecule `Cc1[nH]c2ccccc2c1SCC(=O)Nc1nccs1` yielded a solubility (kinetic) of 4.8 µg/mL (≈ 15.8 µM). `CCOC(=O)c1ccc(NC(=O)CC2SC3=NCCN3C2=O)cc1` (stereo not drawn) showed a solubility (kinetic) above 52.1 µg/mL. Molecule `CCn1c(SCC(=O)N2CCOCC2)nnc1-c1ccco1` came in with a solubility (kinetic) above 48.4 µg/mL.

As to `CCc1ccnc(NC(=O)Nc2ccc(OCc3ccccc3)cc2)c1`, the kinetic solubility is below 0.2 µg/mL. `O=C(NCC1CCCCC1)c1ccc([N+](=O)[O-])cc1` gave a kinetic solubility of 5.1 µg/mL (≈ 19.4 µM). `CN(C(=O)COC(=O)c1cnc(Cl)c(Cl)c1)C1CCCCC1`: the solubility (kinetic) stood at 41.7 µg/mL (≈ 121 µM). `Cc1ccc(OCC(=O)NC2CCS(=O)(=O)C2)c(C)c1` (stereo not drawn): the kinetic solubility was above 44.6 µg/mL.

In the case of `O=C(Nc1ccc(Cl)cc1)Nc1ccccn1`, the kinetic solubility stood at 0.6 µg/mL (≈ 2.42 µM).

For the molecule `Cc1cc(C)n2nc(SCC(=O)N3CCCCC3C)nc2n1` (stereo not drawn), the solubility (kinetic) was above 47.9 µg/mL.

Regarding `COCC(=O)NC1CCCCCC1`, the solubility (kinetic) was above 27.8 µg/mL.

For `O=C(O)C1C2CCC(O2)C1C(=O)Nc1cccc(Cl)c1` (stereo not drawn), the solubility (kinetic) worked out at 40.6 µg/mL (≈ 137 µM). Regarding `Cc1cccc(NC(=O)COC(=O)c2ccc3nc(C)c(C)nc3c2)c1`, the solubility (kinetic) was found to be 3.6 µg/mL (≈ 10.3 µM).

`CN(C(=S)Nc1ccc(SC(F)F)cc1)c1ccc(O)cc1`: the solubility (kinetic) is above 51.1 µg/mL.

In turn, `CC(C)(C)c1ccc(C(=O)NCCCNC(=O)c2ccccn2)cc1` returned a solubility (kinetic) above 50.9 µg/mL. Molecule `O=C(NCCS(=O)(=O)NC1CCCC1)c1ccccc1` had a kinetic solubility above 44.5 µg/mL. Consider `Cc1ccc(S(=O)(=O)CC(=O)Nc2ccccn2)cc1`, for which the kinetic solubility is 42.3 µg/mL (≈ 146 µM). The figure for `Cc1cc2cc(CCNC(=O)CCCc3ccccc3)c(=O)[nH]c2cc1C` is 1.7 µg/mL (≈ 4.69 µM). `CCOc1ccc(NC(=O)CN(C)C(=O)c2ccc(C)o2)cc1OCC`: the kinetic solubility was 52.5 µg/mL (≈ 146 µM). Molecule `O=C1NC(Cc2ccccc2)C(=O)Nc2ccc(Br)cc21` (stereo not drawn) yielded a kinetic solubility of 15.7 µg/mL (≈ 45.5 µM). Take `CCOC(=O)Cc1csc(NC(=O)CCCC(=O)O)n1`: the solubility (kinetic) is above 45 µg/mL. For `CN(CC(=O)Nc1ccc(F)cc1)C(=O)CCc1ccccc1`, the kinetic solubility amounted to 41.9 µg/mL (≈ 133 µM).

Consider `O=C(CN1C(=O)CCC1=O)Nc1nc(-c2ccc3ccccc3c2)cs1`, for which the solubility (kinetic) was determined as 1.8 µg/mL (≈ 4.93 µM). Turning to `COc1ccccc1C(=O)NC(=O)CSc1ccc(C)c(C)c1`, the kinetic solubility worked out at 14 µg/mL (≈ 42.5 µM). Under `Cc1cccc(OCCCC(=O)N2CCCCCC2)c1C` stands 26.9 µg/mL (≈ 92.9 µM); under `c1ccc(Cc2c[nH]c3ccccc23)cc1`, 6.7 µg/mL (≈ 32.3 µM). `CC(CC(=O)O)CC(=O)Nc1cc(C(F)(F)F)cc(C(F)(F)F)c1` (stereo not drawn) returned a kinetic solubility above 53.6 µg/mL.

On to `COCCCn1c(=O)c2sccc2n(Cc2ccccc2)c1=O`, for which the kinetic solubility is 49.4 µg/mL (≈ 150 µM). The figure for `COC(=O)Cc1ccc(NC(=S)N2CCN(c3ccccn3)CC2)cc1` is 5 µg/mL (≈ 13.5 µM). Take `Cc1ccc(N(Cc2ccccc2)C(=O)CN2C(=O)NC3(CCCC3)C2=O)cc1`: the kinetic solubility is above 58.7 µg/mL. `CCc1nc(CN2CCN(c3cc(C(F)(F)F)ccn3)CC2)c(C)[nH]1` registered a solubility (kinetic) of 47.6 µg/mL (≈ 135 µM). The figure for `O=[N+]([O-])c1ccccc1/C=N/OCc1ccccc1` is 2.6 µg/mL (≈ 10.1 µM).

`CC(=O)C1=C(O)C(=O)N(c2ccc(O)cc2)C1c1cccc([N+](=O)[O-])c1` (stereo not drawn) yielded a solubility (kinetic) above 53.1 µg/mL. `O=C(NC1CCOc2ccccc21)c1ccc(=O)[nH]c1` (stereo not drawn) registered a solubility (kinetic) above 40.5 µg/mL.

In turn, `CN(Cc1ccccc1)c1ncnc2sccc12` registered a solubility (kinetic) of 32.4 µg/mL (≈ 127 µM). `CCc1ccccc1NC(=O)COC(=O)C1C2CC3OC(=O)C1C3C2` (stereo not drawn) had a solubility (kinetic) of 46.2 µg/mL (≈ 135 µM). The figure for `Cn1cccc1C(=O)NCCc1ccccc1` is above 34.2 µg/mL; for `O=C(COc1ccccc1Cl)NCCCNC(=O)c1ccccn1` it is above 52.2 µg/mL; for `O=S(=O)(Nc1ccon1)c1cc(Cl)ccc1Cl` it is 43.3 µg/mL (≈ 148 µM).

`CC(C)Nc1nc(NC2CCCC2)nc(N2CCOCC2)n1` gave a kinetic solubility of 16.3 µg/mL (≈ 53.2 µM).

`COc1cc2nc(Cl)nc(N3CCOCC3)c2cc1OC` showed a kinetic solubility of 13.1 µg/mL (≈ 42.3 µM). `COc1ccc(CC(=O)NCCCc2ccccc2)cc1OC` gave a kinetic solubility above 47 µg/mL. Take `CC1SCC(NC(=O)c2ccc(Cl)cc2)CS1` (stereo not drawn): the kinetic solubility was 39.2 µg/mL (≈ 136 µM). In the case of `O=C(c1ccccc1)c1cc2cc(Cl)ccc2[nH]1`, the solubility (kinetic) is below 0.5 µg/mL. Under `Cc1ccc(S(=O)(=O)N2CCC(C(=O)NC3CC3)CC2)cc1` stands above 48.4 µg/mL. Take `Cc1nc2c3c(sc2c(=O)[nH]1)NC(=O)CC3c1ccccc1Cl` (stereo not drawn): the solubility (kinetic) turned out to be 1.5 µg/mL (≈ 4.34 µM). In the case of `Cl.Nc1cnccc1Oc1cccc(C(F)(F)F)c1`, the solubility (kinetic) is above 43.6 µg/mL. In turn, `COS(=O)(=O)[O-].Cn1c(-c2ccc3ccccc3n2)[n+](C)c2ccccc21` gave a kinetic solubility above 57.8 µg/mL.

Regarding `Cc1ccc(S(=O)(=O)Nc2ccc3ccccc3n2)cc1`, the solubility (kinetic) amounted to 33.5 µg/mL (≈ 112 µM). Molecule `COc1ccc(C(=O)O/N=C(\N)c2ccccn2)cc1` had a kinetic solubility above 40.7 µg/mL. Under `Cc1ccc(C)c(NC(=S)N2CCN(c3ccccn3)CC2)c1` stands 14.1 µg/mL (≈ 43.2 µM). In turn, `O=S(=O)(NCCN1CCOCC1)c1cc(Cl)ccc1Cl` came in with a kinetic solubility of 41.6 µg/mL (≈ 123 µM). `COc1ccc(N2C(=O)/C(=C/c3cccs3)C(=O)NC2=S)cc1` came in with a solubility (kinetic) of 31.4 µg/mL (≈ 91.2 µM). In turn, `O=S(=O)(c1cccs1)N1CCN(c2ccc(Cl)cc2)CC1` gave a kinetic solubility below 0.4 µg/mL.

Take `CN(Cc1ccccc1)C(=S)NC(=O)c1ccccc1`: the solubility (kinetic) worked out at 7.5 µg/mL (≈ 26.4 µM). Take `Cc1ccccc1C1NC(c2ccccc2C)C([N+](=O)[O-])C(C)(C)C1[N+](=O)[O-]` (stereo not drawn): the solubility (kinetic) was 0.3 µg/mL (≈ 0.782 µM). Compared with the last molecule, the solubility kinetic is about 25-fold lower.

`O=C(NCc1ccc2c(c1)OCO2)c1cccnc1Cl` had a solubility (kinetic) of 37.9 µg/mL (≈ 130 µM). Take `O=C(COC(=O)c1nc(Cl)ccc1Cl)c1ccc[nH]1`: the solubility (kinetic) was found to be 31.3 µg/mL (≈ 105 µM). Under `O=NN1CCN(c2ccncc2S(=O)(=O)N2CCCCC2)CC1` stands above 50.9 µg/mL; under `O=C(CN1CCc2ccccc2C1)Nc1ccccc1F`, 39.4 µg/mL (≈ 139 µM). With `O=C(NCc1ccc(F)cc1F)Nc1cnccc1C(F)(F)F`, the solubility (kinetic) was above 49.7 µg/mL. Under `CC(=O)c1ccc(NC(=S)NC(=O)Cc2ccc(Cl)cc2)cc1` stands 0.4 µg/mL (≈ 1.15 µM); under `Cc1ccc(CCN2CC(C(=O)NCCN(C)C)CC2=O)cc1` (stereo not drawn), above 47.6 µg/mL; under `Cc1ccc(C(=O)Nc2nc(-c3ccc(F)cc3)cs2)o1`, 4.4 µg/mL (≈ 14.6 µM).

On to `CCC(C(=O)NC(CC(=O)O)c1ccc(Cl)cc1)c1ccccc1` (stereo not drawn), for which the solubility (kinetic) was above 51.9 µg/mL. The molecule `CC(=O)c1c(C)nc(-c2ccc(OCC(=O)Nc3ccccc3)cc2)n1O` showed a kinetic solubility of 51.3 µg/mL (≈ 140 µM).
